Results reported in PubChem BioAssay (NCI).
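Compound exposure: 48 hours, 5 concentrations, 96-well plates. TGI: total growth inhibition.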

Tests used:
Assay in all cases: NCI-60 cell line screen, 48 h
SK-MEL-28 melanoma = system: SK-MEL-28 melanoma
EKVX NSCLC = system: EKVX NSCLC
OVCAR-3 ovarian = system: OVCAR-3 ovarian
DMS 273 small cell lung = system: DMS 273 small cell lung
786-0 renal = system: 786-0 renal
U251 CNS = system: U251 CNS
XF 498 CNS = system: XF 498 CNS
TK-10 renal = system: TK-10 renal
A498 renal = system: A498 renal
MOLT-4 leukemia = system: MOLT-4 leukemia
COLO 205 colon = system: COLO 205 colon
UO-31 renal = system: UO-31 renal
HCC-2998 colon = system: HCC-2998 colon
SR leukemia = system: SR leukemia
DMS 114 small cell lung = system: DMS 114 small cell lung
HOP-62 NSCLC = system: HOP-62 NSCLC
M14 melanoma = system: M14 melanoma
NCI-H460 lung = system: NCI-H460 lung
SN12C renal = system: SN12C renal
A549 NSCLC = system: A549 NSCLC
KM20L2 colon = system: KM20L2 colon
CCRF-CEM leukemia = system: CCRF-CEM leukemia
UACC-62 melanoma = system: UACC-62 melanoma
K-562 leukemia = system: K-562 leukemia
NCI-H226 lung = system: NCI-H226 lung
HL-60(TB) leukemia = system: HL-60(TB) leukemia
SF-268 CNS = system: SF-268 CNS
HT29 colon = system: HT29 colon
CAKI-1 renal = system: CAKI-1 renal
IGROV1 ovarian = system: IGROV1 ovarian
HCT-15 colon = system: HCT-15 colon
SF-539 CNS = system: SF-539 CNS
ACHN renal = system: ACHN renal
SNB-19 CNS = system: SNB-19 CNS
NCI-H23 lung = system: NCI-H23 lung
OVCAR-5 ovarian = system: OVCAR-5 ovarian
OVCAR-4 ovarian = system: OVCAR-4 ovarian
RXF 393 renal = system: RXF 393 renal
SNB-75 CNS = system: SNB-75 CNS
SK-MEL-2 melanoma = system: SK-MEL-2 melanoma
HCT-116 colon = system: HCT-116 colon
OVCAR-8 ovarian = system: OVCAR-8 ovarian
UACC-257 melanoma = system: UACC-257 melanoma
SF-295 CNS = system: SF-295 CNS
M19-MEL melanoma = system: M19-MEL melanoma
DLD-1 colon = system: DLD-1 colon
SK-MEL-5 melanoma = system: SK-MEL-5 melanoma
SW-620 colon = system: SW-620 colon
LXFL 529 NSCLC = system: LXFL 529 NSCLC
RXF-631 renal = system: RXF-631 renal
LOX IMVI melanoma = system: LOX IMVI melanoma
MALME-3M melanoma = system: MALME-3M melanoma
RPMI-8226 leukemia = system: RPMI-8226 leukemia
HOP-92 NSCLC = system: HOP-92 NSCLC
SK-OV-3 ovarian = system: SK-OV-3 ovarian
SNB-78 CNS = system: SNB-78 CNS
NCI-H522 lung = system: NCI-H522 lung
KM12 colon = system: KM12 colon

Cc1nc2ccncc2[nH]1
TGI (SK-MEL-28 melanoma): > 100 µM
TGI (EKVX NSCLC): > 100 µM
TGI (OVCAR-3 ovarian): > 100 µM
TGI (DMS 273 small cell lung): > 100 µM
TGI (786-0 renal): > 100 µM
TGI (U251 CNS): > 100 µM
TGI (XF 498 CNS): > 100 µM
TGI (TK-10 renal): > 100 µM
TGI (A498 renal): > 100 µM
TGI (MOLT-4 leukemia): > 100 µM
TGI (COLO 205 colon): > 100 µM
TGI (UO-31 renal): > 100 µM
TGI (HCC-2998 colon): > 100 µM
TGI (SR leukemia): > 100 µM
TGI (DMS 114 small cell lung): > 100 µM
TGI (HOP-62 NSCLC): > 100 µM
TGI (M14 melanoma): > 100 µM
TGI (NCI-H460 lung): > 100 µM
TGI (SN12C renal): > 100 µM
TGI (A549 NSCLC): > 100 µM
TGI (KM20L2 colon): > 100 µM
TGI (CCRF-CEM leukemia): > 100 µM
TGI (UACC-62 melanoma): > 100 µM
TGI (K-562 leukemia): > 100 µM
TGI (NCI-H226 lung): > 100 µM
TGI (HL-60(TB) leukemia): > 100 µM
TGI (SF-268 CNS): > 100 µM
TGI (HT29 colon): > 100 µM
TGI (CAKI-1 renal): > 100 µM
TGI (IGROV1 ovarian): > 100 µM
TGI (HCT-15 colon): > 100 µM
TGI (SF-539 CNS): > 100 µM
TGI (ACHN renal): > 100 µM
TGI (SNB-19 CNS): > 100 µM
TGI (NCI-H23 lung): > 100 µM
TGI (OVCAR-5 ovarian): > 100 µM
TGI (OVCAR-4 ovarian): > 100 µM
TGI (RXF 393 renal): > 100 µM
TGI (SNB-75 CNS): > 100 µM
TGI (SK-MEL-2 melanoma): > 100 µM
TGI (HCT-116 colon): > 100 µM
TGI (OVCAR-8 ovarian): > 100 µM
TGI (UACC-257 melanoma): > 100 µM
TGI (SF-295 CNS): > 100 µM
TGI (M19-MEL melanoma): > 100 µM
TGI (DLD-1 colon): > 100 µM
TGI (SK-MEL-5 melanoma): > 100 µM
TGI (SW-620 colon): > 100 µM
TGI (LXFL 529 NSCLC): > 100 µM
TGI (RXF-631 renal): > 100 µM
TGI (LOX IMVI melanoma): > 100 µM
TGI (MALME-3M melanoma): > 100 µM

Cc1cccc(C)c1NC(=O)CCCC(=O)C(C#N)c1ccccc1 (centres undefined)
TGI (SK-MEL-28 melanoma): > 100 µM
TGI (RPMI-8226 leukemia): > 100 µM
TGI (HOP-92 NSCLC): > 100 µM
TGI (MOLT-4 leukemia): > 100 µM
TGI (COLO 205 colon): > 100 µM
TGI (SK-OV-3 ovarian): > 100 µM
TGI (UO-31 renal): > 100 µM
TGI (SR leukemia): > 100 µM
TGI (M14 melanoma): > 100 µM
TGI (SNB-78 CNS): > 100 µM
TGI (CCRF-CEM leukemia): > 100 µM
TGI (K-562 leukemia): > 100 µM
TGI (NCI-H226 lung): > 100 µM
TGI (HL-60(TB) leukemia): > 100 µM
TGI (CAKI-1 renal): > 100 µM
TGI (IGROV1 ovarian): > 100 µM
TGI (ACHN renal): > 100 µM
TGI (NCI-H23 lung): > 100 µM
TGI (OVCAR-4 ovarian): > 100 µM
TGI (RXF 393 renal): > 100 µM
TGI (SNB-75 CNS): > 100 µM
TGI (SK-MEL-2 melanoma): > 100 µM
TGI (HCT-116 colon): > 100 µM
TGI (UACC-257 melanoma): > 100 µM
TGI (M19-MEL melanoma): > 100 µM
TGI (DLD-1 colon): > 100 µM
TGI (SK-MEL-5 melanoma): > 100 µM
TGI (SW-620 colon): > 100 µM
TGI (LXFL 529 NSCLC): > 100 µM
TGI (NCI-H522 lung): > 100 µM
TGI (RXF-631 renal): > 100 µM

CC(C)c1ccc(Cc2ccc(C(C)C)c(NC(=O)C(=O)Cc3cnc4ccccc4n3)c2C(C)C)c(C(C)C)c1NC(=O)C(=O)Cc1cnc2ccccc2n1
TGI (EKVX NSCLC): > 100 µM
TGI (OVCAR-3 ovarian): > 100 µM
TGI (RPMI-8226 leukemia): > 100 µM
TGI (786-0 renal): > 100 µM
TGI (U251 CNS): > 100 µM
TGI (TK-10 renal): > 100 µM
TGI (HOP-92 NSCLC): 91.8 µM
TGI (A498 renal): > 100 µM
TGI (MOLT-4 leukemia): > 100 µM
TGI (COLO 205 colon): > 100 µM
TGI (SK-OV-3 ovarian): > 100 µM
TGI (UO-31 renal): > 100 µM
TGI (HCC-2998 colon): > 100 µM
TGI (DMS 114 small cell lung): > 100 µM
TGI (HOP-62 NSCLC): > 100 µM
TGI (M14 melanoma): > 100 µM
TGI (NCI-H460 lung): > 100 µM
TGI (SNB-78 CNS): > 100 µM
TGI (A549 NSCLC): > 100 µM
TGI (KM20L2 colon): > 100 µM
TGI (CCRF-CEM leukemia): > 100 µM
TGI (UACC-62 melanoma): > 100 µM
TGI (K-562 leukemia): > 100 µM
TGI (HL-60(TB) leukemia): > 100 µM
TGI (KM12 colon): > 100 µM
TGI (CAKI-1 renal): > 100 µM
TGI (IGROV1 ovarian): > 100 µM
TGI (HCT-15 colon): > 100 µM
TGI (SF-539 CNS): > 100 µM
TGI (ACHN renal): > 100 µM
TGI (SNB-19 CNS): > 100 µM
TGI (OVCAR-5 ovarian): > 100 µM
TGI (OVCAR-4 ovarian): > 100 µM
TGI (SK-MEL-2 melanoma): > 100 µM
TGI (HCT-116 colon): > 100 µM
TGI (OVCAR-8 ovarian): > 100 µM
TGI (UACC-257 melanoma): > 100 µM
TGI (SF-295 CNS): > 100 µM
TGI (M19-MEL melanoma): > 100 µM
TGI (DLD-1 colon): > 100 µM
TGI (SK-MEL-5 melanoma): > 100 µM
TGI (SW-620 colon): > 100 µM
TGI (LXFL 529 NSCLC): > 100 µM
TGI (RXF-631 renal): > 100 µM
TGI (LOX IMVI melanoma): > 100 µM
TGI (MALME-3M melanoma): > 100 µM
